One series deals with Klebsiella pneumoniae. The series is described as follows: microbe, parasite or virus in culture. Format: functional. The conditions noted are these: PCI-602, 24 h.
Series [1] has as its system Escherichia coli. The series is described as follows: Antibacterial activity against Escherichia coli NIHJ after 24 hrs by twofold dilution assay. Format: functional.
Series [2] has as its system Proteus mirabilis. The series is described as follows: microbe, parasite or virus in culture. Format: functional. The conditions noted are these: GN 2425, 24 h.
Description: Antibacterial activity against Proteus mirabilis GN 2425 after 24 hrs by twofold dilution assay
The next series relates to Staphylococcus aureus. The experiment in a line: microbe, parasite or virus in culture. The class given is functional. Particulars: 209P, 24 h.
Another series deals with Pseudomonas aeruginosa. The series is described as follows: microbe, parasite or virus in culture. Particulars: Pseudomonas aeruginosa, 104, 24 h. The class given is functional.
A short description of series [3]: Drug recovery in Wistar rat urine at 50 mg/kg, po measured over 24 hrs.
Series [4] relates to Escherichia coli. The experiment in a line: Antibacterial activity against Escherichia coli 0111 infected in ICR mouse administered orally 0.5 hr and 6 hrs post infection measured 1 week post challenge. The class given is functional. Particulars: Escherichia coli, 0111, po.
Series [5] can be described thus: Drug level in Wistar rat serum at 50 mg/kg, po measured at 4 hrs.
A short description of series [6]: Drug level in Wistar rat serum at 50 mg/kg, po measured at 0.5 hr.
Series [7] is described as follows: Drug level in Wistar rat serum at 50 mg/kg, po measured at 1 hr.
A short description of series [8]: Drug level in Wistar rat serum at 50 mg/kg, po measured at 6 hrs. Also on record: dose 50 mg/kg, route oral. The class given is ADME, organism-based. Particulars: read-out: Drug uptake.
The test system of series [9] is Proteus mirabilis. The series is described as follows: Antibacterial activity against Proteus mirabilis GN2425 infected in ICR mouse administered orally 0.5 hr and 6 hrs post infection measured 1 week post challenge. Particulars: GN2425, po. The class given is functional.
Series [10] in a line: Drug level in Wistar rat serum at 50 mg/kg, po measured at 2 hrs.

The record followed here is ChEMBL document CHEMBL3244332, “Studies on quinoline derivatives and related compounds. 5. Synthesis and antimicrobial activity of novel 1-alkoxy-1,4-dihydro-4-oxo-3-quinolinecarboxylic acids” (J Med Chem, 1977).

≈ marks a conversion by molar mass, not a printed value.

Description for Klebsiella pneumoniae: Antibacterial activity against Klebsiella pneumoniae PCI-602 after 24 hrs by twofold dilution assay
Description for Pseudomonas aeruginosa: Antibacterial activity against Pseudomonas aeruginosa 104 after 24 hrs by twofold dilution assay
Description for Staphylococcus aureus: Antibacterial activity against Staphylococcus aureus 209P after 24 hrs by twofold dilution assay

For `CCCOn1cc(C(=O)O)c(=O)c2cc3c(cc21)OCO3`, the MIC with Klebsiella pneumoniae is > 200 µg/mL; against Escherichia coli [1] it was 100 µg/mL (≈ 343 µM); with Proteus mirabilis [2], 200 µg/mL (≈ 687 µM); with Staphylococcus aureus it was 50 µg/mL (≈ 172 µM); against Pseudomonas aeruginosa it was 100 µg/mL (≈ 343 µM).

In the case of `O=C(O)c1cn(OCC2CC2)c2cc3c(cc2c1=O)OCO3`, the MIC against Klebsiella pneumoniae was > 200 µg/mL; against Escherichia coli [1] it was 50 µg/mL (≈ 165 µM); in the series on Proteus mirabilis [2], 100 µg/mL (≈ 330 µM); with Staphylococcus aureus it was 50 µg/mL (≈ 165 µM); with Pseudomonas aeruginosa it was > 200 µg/mL.

As for `COn1cc(C(=O)O)c(=O)c2ccc3c(c21)CCC3`, the MIC against Klebsiella pneumoniae was 3.13 µg/mL (≈ 12.1 µM); against Escherichia coli [1] it was 12.5 µg/mL (≈ 48.2 µM); against Proteus mirabilis [2] it was 50 µg/mL (≈ 193 µM); against Staphylococcus aureus, 25 µg/mL (≈ 96.4 µM); in the series with Pseudomonas aeruginosa, > 200 µg/mL.

`O=C(O)c1cn(OCCO)c2cc3c(cc2c1=O)OCO3`: the MIC in the series with Klebsiella pneumoniae was > 200 µg/mL; in the series on Escherichia coli [1], 100 µg/mL (≈ 341 µM); in the series on Proteus mirabilis [2], 100 µg/mL (≈ 341 µM); in the series on Staphylococcus aureus it was 100 µg/mL (≈ 341 µM); in the series on Pseudomonas aeruginosa, 100 µg/mL (≈ 341 µM).

Turning to `C=CCOn1cc(C(=O)O)c(=O)c2cc3c(cc21)OCO3`, the MIC against Klebsiella pneumoniae came to 3.13 µg/mL (≈ 10.8 µM); against Escherichia coli [1], 6.25 µg/mL (≈ 21.6 µM); against Proteus mirabilis [2] it was 50 µg/mL (≈ 173 µM); against Staphylococcus aureus, 12.5 µg/mL (≈ 43.2 µM); with Pseudomonas aeruginosa it was 200 µg/mL (≈ 691 µM).

As for `COn1cc(C(=O)O)c(=O)c2c3c(ccc21)OCC3`, the MIC was 50 µg/mL (≈ 191 µM) against Klebsiella pneumoniae; 100 µg/mL (≈ 383 µM) in the series on Escherichia coli [1]; > 200 µg/mL in the series with Proteus mirabilis [2]; 50 µg/mL (≈ 191 µM) in the series with Staphylococcus aureus; > 200 µg/mL against Pseudomonas aeruginosa.

`CCOn1cc(C(=O)O)c(=O)c2cc3c(cc21)OCO3`: the MIC was determined as 1.56 µg/mL (≈ 5.63 µM) in the series on Klebsiella pneumoniae; 3.13 µg/mL (≈ 11.3 µM) against Escherichia coli [1]; 50 µg/mL (≈ 180 µM) with Proteus mirabilis [2]; 25 µg/mL (≈ 90.2 µM) against Staphylococcus aureus; 100 µg/mL (≈ 361 µM) against Pseudomonas aeruginosa.

For `CCn1cc(C(=O)O)c(=O)c2cc3c(cc21)OCO3` [OXOLINIC ACID], the MIC with Klebsiella pneumoniae amounted to 0.78 µg/mL (≈ 2.99 µM); in the series with Escherichia coli [1] it was 0.39 µg/mL (≈ 1.49 µM); against Proteus mirabilis [2], 0.39 µg/mL (≈ 1.49 µM); in the series with Staphylococcus aureus it was 3.13 µg/mL (≈ 12 µM); against Pseudomonas aeruginosa, 6.25 µg/mL (≈ 23.9 µM). In series [3], this molecule returned a dose excreted at 24 h of 2.4%. Further, the ED50 (as a rule, the midpoint of the dose-response relation) in the series with Escherichia coli [4] is 20 mg/kg; in the series with Proteus mirabilis [9] it was 48 mg/kg. This molecule also came in with a concentration at 4 h in [5] of 4800 ng/mL. This molecule came in with a concentration at 0.5 h in series [6] of 700 ng/mL. For the same molecule, the concentration at 1 h in series [7] worked out at 1500 ng/mL. In addition, in series [8], the concentration at 6 h is 2700 ng/mL. Moreover, the concentration at 2 h in series [10] is 4700 ng/mL.

For `C=CCOn1cc(C(=O)O)c(=O)c2c3c(ccc21)OCOC3`, the MIC against Klebsiella pneumoniae is > 200 µg/mL; in the series on Escherichia coli [1], > 200 µg/mL; in the series on Proteus mirabilis [2], > 200 µg/mL; in the series with Staphylococcus aureus, > 50 µg/mL; in the series on Pseudomonas aeruginosa, > 200 µg/mL.

With `CCn1cc(C(=O)O)c(=O)c2c3sc(=O)n(C)c3ccc21` [TIOXACIN], the MIC in the series on Klebsiella pneumoniae was 0.2 µg/mL (≈ 0.657 µM); in the series with Escherichia coli [1], 0.1 µg/mL (≈ 0.329 µM); with Proteus mirabilis [2], 0.39 µg/mL (≈ 1.28 µM); with Staphylococcus aureus it was 3.13 µg/mL (≈ 10.3 µM); with Pseudomonas aeruginosa, > 200 µg/mL. The dose excreted at 24 h in series [3] amounted to 0.3%. For the same molecule, the concentration at 4 h in series [5] stood at 450 ng/mL. In [6], this molecule came in with a concentration at 0.5 h of 300 ng/mL. The same molecule gave a concentration at 1 h in series [7] of 360 ng/mL. Moreover, the concentration at 6 h in series [8] came out at 360 ng/mL. The molecule also had a concentration at 2 h in [10] of 320 ng/mL.

For the molecule `CC(C)On1cc(C(=O)O)c(=O)c2cc3c(cc21)OCO3`, the MIC with Klebsiella pneumoniae was 3.13 µg/mL (≈ 10.7 µM); in the series with Escherichia coli [1], 6.25 µg/mL (≈ 21.5 µM); in the series with Proteus mirabilis [2], 50 µg/mL (≈ 172 µM); against Staphylococcus aureus, 25 µg/mL (≈ 85.8 µM); against Pseudomonas aeruginosa, 200 µg/mL (≈ 687 µM).

In the case of `COn1cc(C(=O)O)c(=O)c2cc3c(cc21)CCO3`, the MIC in the series on Klebsiella pneumoniae was 0.2 µg/mL (≈ 0.766 µM); with Escherichia coli [1], 0.78 µg/mL (≈ 2.99 µM); against Proteus mirabilis [2], 0.39 µg/mL (≈ 1.49 µM); with Staphylococcus aureus it was 6.25 µg/mL (≈ 23.9 µM); in the series on Pseudomonas aeruginosa, 12.5 µg/mL (≈ 47.9 µM). The same molecule gave a dose excreted at 24 h in series [3] of 11%. Also, in [5], the concentration at 4 h amounted to 1700 ng/mL. In addition, the concentration at 0.5 h in series [6] was 6200 ng/mL. In [7], this molecule gave a concentration at 1 h of 4700 ng/mL. The same molecule displayed a concentration at 2 h in series [10] of 4000 ng/mL.

On to `CCn1cc(C(=O)O)c(=O)c2c3c(ccc21)OCOC3`, for which the MIC was 6.25 µg/mL (≈ 22.7 µM) against Escherichia coli [1], 12.5 µg/mL (≈ 45.4 µM) against Proteus mirabilis [2], 3.13 µg/mL (≈ 11.4 µM) against Staphylococcus aureus and > 200 µg/mL against Pseudomonas aeruginosa.

Regarding `COn1cc(C(=O)O)c(=O)c2c3sc(=O)n(C)c3ccc21`, the MIC amounted to 0.2 µg/mL (≈ 0.653 µM) in the series with Klebsiella pneumoniae; 0.2 µg/mL (≈ 0.653 µM) with Escherichia coli [1]; 0.39 µg/mL (≈ 1.27 µM) in the series on Proteus mirabilis [2]; 6.25 µg/mL (≈ 20.4 µM) in the series with Staphylococcus aureus; 12.5 µg/mL (≈ 40.8 µM) against Pseudomonas aeruginosa. Besides, the dose excreted at 24 h in [3] was found to be 1.8%. In addition, the concentration at 4 h in series [5] is 1900 ng/mL. The molecule further came in with a concentration at 0.5 h in [6] of 2900 ng/mL. This molecule showed a concentration at 1 h in [7] of 4500 ng/mL. Also, the concentration at 2 h in series [10] stood at 3700 ng/mL.

For `O=C(O)c1cn(OCc2ccccc2)c2ccc3c(sc(=O)n3Cc3ccccc3)c2c1=O`, the MIC in the series with Klebsiella pneumoniae was > 200 µg/mL; in the series on Escherichia coli [1], > 200 µg/mL; against Proteus mirabilis [2], > 200 µg/mL; against Staphylococcus aureus, > 1.56 µg/mL; against Pseudomonas aeruginosa it was > 200 µg/mL.

In the case of `COn1cc(C(=O)O)c(=O)c2cc3c(cc21)OCO3` [MILOXACIN], the MIC with Klebsiella pneumoniae amounted to 0.39 µg/mL (≈ 1.48 µM); against Escherichia coli [1], 0.39 µg/mL (≈ 1.48 µM); in the series with Proteus mirabilis [2], 0.39 µg/mL (≈ 1.48 µM); in the series with Staphylococcus aureus, 6.25 µg/mL (≈ 23.7 µM); against Pseudomonas aeruginosa, 12.5 µg/mL (≈ 47.5 µM). This molecule displayed a dose excreted at 24 h in series [3] of 7.5%. Besides, the values for the ED50 with Escherichia coli [4] and in the series with Proteus mirabilis [9] were 7.2 mg/kg and 30 mg/kg, respectively. Moreover, the concentration at 4 h in series [5] was 19500 ng/mL. The same molecule registered a concentration at 0.5 h in series [6] of 11600 ng/mL. This molecule also had a concentration at 1 h in series [7] of 27800 ng/mL. Also, in series [8], the concentration at 6 h was 1500 ng/mL. The same molecule displayed a concentration at 2 h in [10] of 22300 ng/mL.

For the molecule `COn1cc(C(=O)O)c(=O)c2c3c(ccc21)OCOC3`, the MIC against Klebsiella pneumoniae is 12.5 µg/mL (≈ 45.1 µM); against Escherichia coli [1] it was 12.5 µg/mL (≈ 45.1 µM); against Proteus mirabilis [2], 200 µg/mL (≈ 721 µM); in the series on Staphylococcus aureus, 25 µg/mL (≈ 90.2 µM); against Pseudomonas aeruginosa, > 200 µg/mL.

`C=CCOn1cc(C(=O)O)c(=O)c2c3sc(=O)n(CC=C)c3ccc21`: the MIC in the series with Klebsiella pneumoniae is 200 µg/mL (≈ 558 µM); in the series on Escherichia coli [1], 100 µg/mL (≈ 279 µM); with Proteus mirabilis [2] it was > 200 µg/mL; against Staphylococcus aureus it was 50 µg/mL (≈ 140 µM); in the series with Pseudomonas aeruginosa it was > 200 µg/mL.

As to `CCn1cc(C(=O)O)c(=O)c2ccc3c(c21)CCC3`, the MIC in the series on Klebsiella pneumoniae is 0.39 µg/mL (≈ 1.52 µM); in the series with Escherichia coli [1], 1.56 µg/mL (≈ 6.06 µM); in the series with Proteus mirabilis [2], 6.25 µg/mL (≈ 24.3 µM); in the series on Staphylococcus aureus, 3.13 µg/mL (≈ 12.2 µM); in the series on Pseudomonas aeruginosa, 50 µg/mL (≈ 194 µM).
